Test results reported in US10940150B2, “Thymine derivatives and quinazoline-dione derivatives for the inhibition of HSP27” (TECHNISCHE UNIVERSITAET DRESDEN, priority 2014, dated 2021).

Key:
[1] = biological target: T1, HSP27 (Homo sapiens, UniProt P04792); test: Spectrophotometric protein aggregation assay (citrate synthase, HSP27 chaperone function); assay type: biochemical; details: for effect on chaperone function of HSP27 (CS aggregation) relative to 750 μmol/L BVDU: 43° C., 500 nm
Protocol: FIG. 1: a spectrophotometric protein aggregation assay at 43° C., a wavelength of 500 nm and a concentrations of the proteins: 1.44 μmol/L citrate synthase (CS), 481 nmol/L HSP27 (HSP) in a 40 mmol/L HEPES buffer (pH 7.4) during treatment with 14 or 28 μmol/L 2-(3-trichlorovinylphenylamino)-1,9-dihydropurin-6-one (CS+HSP+test substance no. 2), with 750 μmol/L BVDU (CS+HSP+BVDU) and without (CS+HSP; reference);
To measure the efficacy of the purine derivatives according to the invention, robust experiments for the chaperone function of the HSP27 protein were performed:
A known client protein (=substrate on which HSP27 acts as a chaperone) of HSP27 is citrate synthase. Citrate synthase is denatured when the temperature increases to 43° C. This heat denaturation is prevented or delayed by the presence of HSP27 [Jakob U, 1993]. By adding the novel active ingredients, their efficacy can thus be measured through the inhibition of the HSP27 chaperone function.
To determine the activity (i.e. the effect on the aggregation behaviour of the citrate synthase (CS) after thermal incubation) of 2-(3-trichlorovinylphenylamino)-1,9-dihydropurin-6-one in comparison to BVDU, four different batches containing 1.44 μmol/L CS, 481 nmol/L HSP27 (HSP) in a 40 mmol/L HEPES buffer (pH 7.4) were prepared and BVDU (750 μmol/L) or various concentrations of 2-(3-trichlorovinylphenylamino)-1,9-dihydropurin-6-one (14 μmol/L; 28 μmol/L) were added. The samples were then incubated at 43° C. and the aggregation behaviour of the CS was […] in a spectrometer (PerkinElmer LS55, PerkinElmer Inc.) at a wavelength of 500 nm.
It can be seen from FIG. 1 that the protein citrate synthase (graph CS alone) is denatured by increasing the temperature to 43° C. and forms aggregates. The aggregation is measured in the spectrometer at 500 nm (light scattering by protein aggregates). The presence of HSP27 (HSP) counteracts the aggregation (cf. graph, CS+HSP). Since the addition of the test substances (BVDU and 2-(3-trichlorovinylphenylamino)-1,9-dihydropurin-6-one) inhibits the chaperone function of HSP27, the activity of the respective test substance can be determined by measuring the aggregation behaviour of the CS.

[2] = biological target: T1, HSP27; test: Capillary electrophoresis of heat-denatured citrate synthase protein precipitates; assay type: biochemical; details: for times higher activity than BVDU for the inhibition of the HSP27 protein / Efficacy compared with BVDU: 10 μmol/L vs 750 μmol/L BVDU; for times higher activity than BVDU for the inhibition of the HSP27 protein / Rel. quantity of protein prec. CS: 43° C. for 120 minutes; for Rel. quantity of protein prec. CS: 10 μmol/L; for BVDU equivalent dose: based on 100 mg BVDU
Protocol: (§1) Since the heat-denatured protein aggregates of the citrate synthase from Example 1 are not water-soluble, these can be separated completely from the supernatant by means of centrifugation at room temperature at 16,000×g, 10 min. By using capillary electrophoresis, the compositions of the separated precipitates can be shown and quantified. The relative quantity of protein of precipitated citrate synthase serves as a measure of the efficacy of the test substances.
(§2) In each case, 481 nmol/L HSP27 and 1.44 μmol/L citrate synthase in 40 mmol/L HEPES buffer, pH 7.4, were employed. The relative quantity of protein of the precipitated citrate synthase in each case was normalized using a defined quantity of BSA as internal standard. The relative quantity of protein that precipitated when using 750 μmol/L BVDU was set at 1. The other test substances (2 representatives of phenothiazine derivatives of general formula (V), 2 representatives of purine derivatives of formula (I) or (II)) were each employed at a concentration of 10 μmol/L.
as §1, with “Example 2” for “Example 1”
as §2, with “nM” for “nmol/L”, “thymine” for “purine”, “were” for “were each”, “μmol/L in each case.” for “μmol/L.”
Otherwise, the experiments were performed as described above: […]

[3] = test system: RPMI-8226 cells; test: Development of resistance to bortezomib in RPMI-8226 cells; assay type: cell-based
Protocol: The cell line RPMI-8226 (DMSZ 402) is a “multiple myeloma” cell line and was chosen because bortezomib is employed as a standard therapy for multiple myeloma. RPMI-8226 cells respond to bortezomib, express HSP27 and develop resistance to Velcade. RPMI-8226 cells were seeded at a cell count of 100,000 cells/ml in each case and regularly passaged. […] In contrast, for RPMI 8226 cells that were treated with 30 μmol/L BVDU, a final cell count of 160,000 cells/ml was detected whereas the final cell count for the culture without the addition of an HSP27 inhibitor amounted to 350,000 cells/ml. As a control, RPMI 8226 cells were treated with the respective test substances alone, FIG. 4b.

[4] = test system: RPMI-8226 cells; test: as above; assay type: cell-based; remark: listed apart in the source
[5] = test system: U937 cells; test: Development of resistance to bortezomib in U937 cells; assay type: cell-based; details: bortezomib 0.1-0.5 ng/ml + 0.75 μmol/L test substance (FIG. 11a)
Protocol: For this purpose, U937 cells (histiocytic lymphoma) were cultured in DMEM culture medium (+10% FCS) at 37° C., 5% CO2 in an H2O-saturated atmosphere. 100,000 cells/ml were seeded and incubated with the cytostatic agent bortezomib (0.1 ng/ml) and the respective test substance (dosage in the current experiment: 1 μM/L acepromazine). The reference substance, BVDU, was employed at a concentration of 30 μM/L. The cells were in each case passaged before the cell count reached 1,000,000 cells/ml. At each passage, 100,000 cells/ml were again seeded and the dose of the cytostatic agent bortezomib was increased stepwise (0.1 ng/mL or 0.05 ng/mL). The concentration of the test substances remained constant. As a result of the stepwise increase in the dosage of the cytostatic agent, resistance developed in the U937 cells. The development of resistance is prevented or inhibited in the case of a positively tested HSP27 inhibitor. The experiments from Example 6 were repeated in the same way, wherein U937 cells (histiocytic lymphoma) are cultured in DMEM culture medium (+10% FCS) at 37° C., 5% CO2 in an H2O-saturated atmosphere. 100,000 cells/ml were seeded and incubated with an initial concentration of 0.2 ng/ml of the cytostatic agent bortezomib and both without an inhibitor and with acepromazine as an HSP27 inhibitor at a concentration of 1 μM/L. The reference substance, BVDU, was employed at a concentration of 30 μM/L. The cells were passaged in each case before the cell count reached 1,000,000 cells/ml. At each passage, 100,000 cells/ml were again seeded and the dose of the cytostatic agent bortezomib was increased stepwise by 0.1 ng/mL. The concentration of the test substance and the reference substance remained constant. As a result of the stepwise increase in the dosage of the cytostatic agent, resistance developed in the U937 cells. The development of resistance is prevented or inhibited in the case of a positively tested HSP27 inhibitor. The cell line U-937 is a histiocytic lymphoma (DSMZ ACC 5). This cell line also responds to treatment with bortezomib, expresses HSP27 and develops resistance to bortezomib. Bortezomib is not the standard therapy for this lymphoma, but is being discussed as a possible therapeutic agent. U-937 cells were seeded with a cell count of 100,000 cells/ml in each case and regularly passaged. […] At the end of the experiment, 70,000 living cells per ml medium could be detected. For the treatment with 30 μmol/L BVDU, a final cell count of 250,000 cells/ml was detected whereas the final cell count in the culture without the addition of an HSP27 inhibitor amounted to 450,000 cells/ml. As a control, U-937 cells were treated with the respective test substances alone, FIG. 10b.

[6] = biological target: T1, HSP27; test: Bio-layer interferometry binding to HSP27; details: wet-chemical experiments
From the text: Bio-layer interferometry is a technique for detecting biomolecular interactions. It is an analytical technique that measures the optical interference of white light which is reflected by two surfaces: in each case, one surface consists of a layer of the immobilized target protein on the tip of the biosensor and one is an internal reference surface. The binding of ligands to the target protein alters the interference pattern and can be measured in real time.
For the measurements, an instrument of the ForteBio Octet Red 384 brand was used. The target protein HSP27 was biotinylated and bound to the appropriate sensors (SSA). […]
For measurements by bio-layer interferometry, biotinylated HSP27 protein was first bound to Super-Streptavidin sensors (SSA, Fortebio). […] In the case of a specific binding to HSP27 of the analyte to be measured, the loaded HSP27 sensor generates a stronger signal (response) than the concurrent reference sensor. After the “baseline” has been established by incubation with the reaction buffer (PBST 0.1% Tween 20 plus 3% DMSO), first the association and then the dissociation of the respective analyte is measured in real time. The analytes were measured in increasing concentrations in each case: 1.23-3.7-11.11-33.33-100-300 μM/l.

[7] = 43° C. for 120 minutes (Table 1)
[8] = relative to 750 μmol/L BVDU = 1 (Table 1)
[9] = 43° C. for 120 minutes (Table 2)
[10] = relative to 750 μmol/L BVDU = 1 (Table 2)

T1 sequence (P04792 whole entry): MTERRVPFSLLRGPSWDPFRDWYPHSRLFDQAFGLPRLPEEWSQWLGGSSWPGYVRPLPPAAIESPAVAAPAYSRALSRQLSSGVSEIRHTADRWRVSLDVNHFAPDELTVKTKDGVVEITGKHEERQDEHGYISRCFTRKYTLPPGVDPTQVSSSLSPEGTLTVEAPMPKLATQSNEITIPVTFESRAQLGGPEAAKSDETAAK

## O=c1[nH]c(Nc2cccc(C(Cl)=C(Cl)Cl)c2)nc2[nH]cnc12 [2-(3-trichlorovinylphenylamino)-1,9-dihydropurin-6-one]
[1]; 14 μmol/L
  effect on chaperone function of HSP27 (CS aggregation) relative to 750 μmol/L BVDU: comparable effect
[1]; 28 μmol/L
  effect on chaperone function of HSP27 (CS aggregation) relative to 750 μmol/L BVDU: significantly more pronounced effect
[1]; based on 100 mg BVDU
  BVDU equivalent dose: less than 1.9 mg
[2]
  times higher activity than BVDU for the inhibition of the HSP27 protein: 53 times
  BVDU equivalent dose: less than 1.9 mg
[2]; [7]
  Efficacy compared with BVDU: 53.25 x
[2]; [8]
  Rel. quantity of protein prec. CS: 0.71
[3]; bortezomib 0.1-0.3 ng/ml + 1 μmol/L test substance (FIG. 7a)
  development of resistance to the cytostatic agent bortezomib: significantly inhibited
[4]; bortezomib 0.1-0.3 ng/ml + 1 μmol/L test substance (FIG. 7a), without HSP27 inhibitor 950,000 cells/ml
  living cells at the end of the experiment: 270,000 living cells per ml medium

## CCCCc1ccc(Nc2nc3c(ncn3COCCO)c(=O)[nH]2)cc1 [2-(4-butylphenylamino)-9-(2-hydroxyethoxymethyl)-1,9-dihydropurin-6-one]
[2]
  times higher activity than BVDU for the inhibition of the HSP27 protein: 69 times
  BVDU equivalent dose: 1.4 mg
[2]; [7]
  Efficacy compared with BVDU: 69.0 x
[2]; [8]
  Rel. quantity of protein prec. CS: 0.92
[5]
  development of resistance to the cytostatic agent bortezomib: significantly inhibited
[5]; without HSP27 inhibitor 450,000 cells/ml
  living cells at the end of the experiment: 30,000 living cells per ml medium
[4]; bortezomib 0.1-0.3 ng/ml + 1 μM/L test substance (FIG. 6a)
  development of resistance to the cytostatic agent bortezomib: significantly inhibited
[4]; bortezomib 0.1-0.3 ng/ml + 1 μM/L test substance (FIG. 6a), without HSP27 inhibitor 950,000 cells/ml
  living cells at the end of the experiment: 240,000 living cells per ml medium

## Cc1cn(CC=CCNC(=O)C2c3ccccc3Oc3ccccc32)c(=O)[nH]c1=O [9H-xanthene-9-carboxylic acid [4-(5-methyl-2,4-dioxo-3,4-dihydro-2H-pyrimidin-1-yl)-but-2-enyl]amide]
[2]
  times higher activity than BVDU for the inhibition of the HSP27 protein: 49 times
  BVDU equivalent dose: less than 2 mg
[2]; [9]
  Efficacy compared with BVDU: 48.75 x
[2]; [10]
  Rel. quantity of protein prec. CS: 0.65
[3]; bortezomib 0.075-0.275 ng/ml + 1 μmol/L test substance (FIG. 8a)
  development of resistance to the cytostatic agent bortezomib: significantly inhibited
[4]; bortezomib 0.075-0.275 ng/ml + 1 μmol/L test substance (FIG. 8a), without HSP27 inhibitor 510,000 cells/ml
  living cells at the end of the experiment: 290,000 living cells per ml medium

## CN(C)CCCN1c2ccccc2Sc2ccc(Cl)cc21 [Chlorpromazine, reference compound]
[6]
  affinity for interaction with HSP27: only a low affinity
[2]; [7]
  Efficacy compared with BVDU: 79.5 x
[2]; [9]
  Efficacy compared with BVDU: 79.5 x
[2]; [8]
  Rel. quantity of protein prec. CS: 1.06
[2]; [10]
  Rel. quantity of protein prec. CS: 1.06
[3]; bortezomib 0.2-0.4 ng/ml + 0.5 μmol/L chlorpromazine (FIG. 5a)
  development of resistance to the cytostatic agent bortezomib: significantly inhibited
[3]; bortezomib 0.2-0.4 ng/ml + 0.5 μmol/L chlorpromazine (FIG. 5a), without HSP27 inhibitor 350,000 cells/ml
  living cells at the end of the experiment: 70,000 living cells per ml medium
